Tests used:
Experiment in all cases: relative viability (nuclei count vs DMSO), 5 days (fraction); higher = more cells survive
Veliparib + Foretinib = compound: C[C@]1(c2nc3c(C(N)=O)cccc3[nH]2)CCCN1 [Veliparib] + COc1cc2c(Oc3ccc(NC(=O)C4(C(=O)Nc5ccc(F)cc5)CC4)cc3F)ccnc2cc1OCCCN1CCOCC1 [Foretinib] (partner 0.25 µM)
Outline: (§1)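 One day after seeding in 1536-well plates, lung cancer cell lines were dosed by pin tool. Dosing was either single-drug or a fixed anchor-drug dose plus five library-drug doses (not always all listed) in √10 steps. After 5 days, nuclei were stained in one fix-and-stain step and counted on 4× images, and relative viability is the nuclei count of treated wells over that of vehicle wells, given as the median of duplicate plates.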

Veliparib + OSI-027 = compound: C[C@]1(c2nc3c(C(N)=O)cccc3[nH]2)CCCN1 [Veliparib] + COc1cccc2cc(-c3nc([C@H]4CC[C@H](C(=O)O)CC4)n4ncnc(N)c34)[nH]c12 [OSI-027] (partner 0.5 µM)
Outline: as §1

[1] = compound: COC1=CC=C(C=C1)CN2C=CC3=C2C=C(C=C3)C(=O)NO + C[C@]1(O)C[C@@H](c2nc(-c3ccc4ccc(-c5ccccc5)nc4c3)c3c(N)nccn32)C1 [Linsitinib] (partner 1 µM)
Outline: as §1

[2] = compound: COC1=CC=C(C=C1)CN2C=CC3=C2C=C(C=C3)C(=O)NO + CC(=O)c1c(C)c2cnc(Nc3ccc(N4CCNCC4)cn3)nc2n(C2CCCC2)c1=O [Palbociclib] (partner 0.5 µM)
Outline: as §1

Cell Line: SW 1573
- relative viability (Veliparib + Foretinib; first compound 0.02 µM): 0.881
- relative viability (Veliparib + Foretinib; first compound 0.06325 µM): 0.771
- relative viability (Veliparib + Foretinib; first compound 0.2 µM): 0.99
- relative viability (Veliparib + Foretinib; first compound 0.6325 µM): 0.828
- relative viability (Veliparib + Foretinib; first compound 2 µM): 0.941
- relative viability (Veliparib + OSI-027; first compound 0.06325 µM): 0.558
- relative viability (Veliparib + OSI-027; first compound 0.2 µM): 0.597
- relative viability (Veliparib + OSI-027; first compound 0.6325 µM): 0.521
- relative viability (Veliparib + OSI-027; first compound 2 µM): 0.675
- relative viability ([1]; first compound 0.253 µM): 0.835
- relative viability ([1]; first compound 0.8 µM): 0.761
- relative viability ([1]; first compound 2.53 µM): 0.666
- relative viability ([1]; first compound 8 µM): 0.514
- relative viability ([2]; first compound 0.253 µM): 0.397
- relative viability ([2]; first compound 0.8 µM): 0.474
- relative viability ([2]; first compound 2.53 µM): 0.392
- relative viability ([2]; first compound 8 µM): 0.326

Reference: the supplement of paper PMC10307832
